Results taken from US20100226885A1, “METHOD OF TREATING HEPATITIS C PATIENTS” (priority 2007, published 2010).

Columns and labels:
Hepatitis C = conditions: by week four; VX-950 alone; cited from earlier work
HCV genotype 1 = assay: Example 2: Phase II study of treatment-naïve patients, plasma HCV RNA by Roche COBAS TaqMan HCV/HPS assay; format: in vivo, human; conditions: addition to PegIntron/REBETOL combination therapy, 28 and 48 week regimens
Experimental: The effectiveness of a lead-in period with interferon and ribavirin combination therapy prior to the addition of an HCV protease inhibitor was further evaluated in a study of 595 treatment-naïve patients infected with HCV genotype 1. In this study, boceprevir (compound of Formula 1a) is being evaluated, compared to a control of PegIntron® (peginterferon alfa-2b) at 1.5 mcg/kg QW plus REBETOL® (ribavirin, USP) (800-1400 mg/day) for a treatment period of 48 weeks, in three treatment regimens: • P/R Lead-In +B/P/R: • PegIntron (1.5 mcg/kg QW) in combination with REBETOL (800-1400 mg/day) during a first treatment period of 4 weeks followed by adding boceprevir (800 mg TID) to the combination during a second treatment period of 24 or 44 weeks; thus, the total treatment time with PegIntron and REBETOL was 28 or 48 weeks; • B/P/R: • boceprevir (800 mg TID) in combination with PegIntron (1.5 mcg/kg QW) plus REBETOL (800-1400 mg/day) for a single treatment period of 28 or 48 weeks; and • B/P/Low-dose R: • boceprevir (800 mg TID) in combination with PegIntron (1.5 mcg/kg QW) plus low-dose REBETOL (400-1000 mg/day) for a single treatment period of 48 weeks. […]
Plasma HCV RNA levels were measured using the Roche COBAS TaqMan® HCV/HPS assay (Roche Molecular Systems, Somerville, N.J.).

Row | Compound | treated patients showing evidence of negative HCV status (Hepatitis C) [%] | SVR compared to the PegIntron/REBETOL control (HCV genotype 1)
1 | CCC[C@H](NC(=O)[C@@H]1[C@H]2CCC[C@H]2CN1C(=O)[C@@H](NC(=O)[C@@H](NC(=O)c1cnccn1)C1CCCCC1)C(C)(C)C)C(=O)C(=O)NC1CC1 [VX-950] | 79 | 
2 | CC(C)(C)NC(=O)N[C@H](C(=O)N1CC2C([C@H]1C(=O)NC(CC1CCC1)C(=O)C(N)=O)C2(C)C)C(C)(C)C (some centres unmarked) [boceprevir] |  | markedly increased SVR
